Laboratory results from patent publication US12037354B2, “Cyclic pantetheine derivatives and uses thereof” (VectivBio Comet AG, priority 2018, dated 2024).

Tests used:
Type in all cases: cell-based, human
[1] = test system: Keratinocytes co-cultured with dermal fibroblast (KF3CT system); assay: BioMAP KF3CT system, Example 834
Method: (§1) The BioMAP platform (BioMAP® Diversity PLUS Panel from Eurofins) is an in vitro phenotypic profiling technology that screened the compounds of the present disclosure (hereafter indicated as test agents) in human primary cell-based systems modelling complex tissue and disease states. The BioMAP assays were performed using the Eurofin's BioMAP Technology Platform as (see references 1 to 13 in the example 824 section) to model different diseases on primary cell-based model systems. These systems consisted of either single primary cell types or co-culture cells. Adherent cell types were cultured or co-cultured in 96 or 384-well plates until confluence followed by the addition of compounds prepared in DMSO at a final concentration of ≤0.1%. In each cell-based system, primary cells from heathy donors (2-6 donors) were pooled and treated with compounds at 1 and 10 μM dose 1 h prior to stimulation and remain in culture as indicated in
(§2) Example 825, Example 826, Example 827, Example 828, Example 829, Example 830, Example 831, Example 832, Example 833, Example 834, Example 835, Example 836 and Example 837. For on the BioMAP® Diversity PLUS® Panel, please see the following references, which are incorporate herein.
Following the general procedure as described in Example 824, Keratinocytes were co-cultured with dermal fibroblast (KF3CT system) and treated with […], TNFα, IFNγ and TGFβ for 24 h in the presence or absence of the compounds to model psoriasis, dermatitis and skin biology. Biomarkers read out were; MCP-1, ICAM-1, IP-10, IL-8, MIG, IL-1α, MMP-9, PAI-1, SRB, TIMP-2, uPA.

[2] = test system: Venular endothelial cells co-cultured with macrophages (Mphg system); assay: BioMAP Mphg system, Example 836
Method: as §1, §2
Following the general procedure as described in Example 824, Venular endothelial cells co-cultured with macrophages (Mphg system) and treated with TLR2 ligand for 24 h in the presence or absence of the compounds to mimic cardiovascular inflammation, restenosis and chronic inflammation. Biomarkers read out were; MCP-1, MIP-1α, VCAM-1, CD40, E-selectin, CD69, IL-8, IL-1α, M-CSF, sIL-10 and SRB.

[3] = test system: Peripheral blood mononuclear cells co-cultured with venular endothelial cells (Sag system); assay: BioMAP Sag system, Example 828
Method: as §1, §2
Following the general procedure as described in Example 824, Peripheral blood mononuclear cells were co-cultured with venular endothelial cells and treated with soluble antigen (T-cell ligands) (Sag system) in the presence or absence of compounds to model autoimmune and chronic inflammation. Biomarkers read out were; MCP-1, CD38, CD40, E-selectin, CD69, IL-8, MIG, PBMC cytotoxicity, Proliferation and SRB.

[4] = test system: Peripheral blood mononuclear cells co-cultured with B-cells (BT system); assay: BioMAP BT system, Example 829
Method: as §1, §2
Following the general procedure as described in Example 824, Peripheral blood mononuclear cells were co-cultured with B-cells (BT system) were treated with either α-IgM and TCR ligands for 72 h in the presence or absence of the compounds to model asthma, allergy, oncology and autoimmunity. Biomarkers read out were; B-cell proliferation, PBMC cytotoxicity, secreted IgG, sIL-17A, sIL-17F, sIL-2, sIL-6 and s-TNFα.

[5] = test system: Peripheral blood mononuclear cells co-cultured with venular endothelial cells (HUVEC) (LPS system); assay: BioMAP LPS system, Example 827
Method: as §1, §2
Following the general procedure as described in Example 824, Peripheral blood mononuclear cells co-cultured with venular endothelial cells (HUVEC) (LPS system) were stimulated with LPS for 24 h in the presence or absence of compounds, to model cardiovascular disease and chronic inflammation. Biomarkers read out were; MCP-1, VCAM-1, Thrombomodulin, Tissue Factor, CD40, E-selectin, CD69, IL-8, IL-1α, M-CSF, sPGE2, SRB and TNFα.

[6] = test system: Bronchial epithelial cells (BE3C system); assay: BioMAP BE3C system, Example 831; settings: for % decrease in MMP-9: 1 uM
Method: as §1, §2
Following the general procedure as described in Example 824, Bronchial epithelial cells (BE3C system) were treated with IL-1f3, TNFα and IFNγ for 24 h in the presence or absence of the compounds to model lung inflammation and chronic obstructive pulmonary disease (COPD). Biomarkers read out were; ICAM-1, uPAR, IP-10, I-TAC, IL-8, MIG, EGFR, HLA-DR, IL-1α, Keratin 8/18, MMP-1, MMP-9, PAI-1, SRB, tPA, uPA.

[7] = test system: Coronary artery smooth muscle cells (CASM3C system); assay: BioMAP CASM3C system, Example 832
Method: as §1, §2
Following the general procedure as described in Example 824, Coronary artery smooth muscle cells (CASM3C system) were treated with IL-1β, TNFα and IFNγ for 24 h in the presence or absence of the compounds to model cardiovascular inflammation and restenosis. Biomarker reads out were; MCP-1, VCAM-1, Throbomodulin, Tissue factor, uPAR, IL-8, MIG, HLA-DR, IL-6, LDLR, M-CSF, PAI-1, Proliferation, SAA and SRB

[8] = test system: Bronchial epithelial cells co-cultured with dermal fibroblast (BF4T system); assay: BioMAP BF4T system, Example 830; settings: 10 uM
Method: as §1, §2
Following the general procedure as described in Example 824, Bronchial epithelial cells were co-cultured with dermal fibroblast (BF4T system) and were treated with TNFα and IL-4 for 24 h in the presence or absence of the compounds to model asthma, allergy, fibrosis, lung inflammation. Biomarkers read out were; MCP-1, Eotaxin-3, VCAM-1, ICAM-1, CD90, IL-8, IL-1α, keratin 8/18, MMP-1, MMP-3, MMP-9, PAI-1, SRB, tPA, uPA.

[9] = procedure of Example 836, 10 uM
[10] = Example 988, concentration tested 1 uM
[11] = procedure of Example 827, concentration tested 10 uM

SMILES: COC(=O)CCC(=O)SCCNC(=O)CCNC(=O)[C@@H]1OC(=O)OCC1(C)C [Compound 451]
- % decrease in MCP-1 ([1]; 1 uM (Example 927)): ≥10%
- % decrease in MCP-1 ([1]; 1 uM (Example 928)): ≥10%
- % decrease in α-SMA ([2]; procedure of Example 836, 1 uM): ≥10%
- % decrease in VCAM-1 [2, 9]: ≥10%
- % increase in MMP-1 [2, 9]: ≥10%
- % decrease in CXCL8/IL-8 ([3]; Sag system, 10 uM): ≥10%
- % decrease in CXCL8/IL-8 ([3]; concentration tested 10 uM): ≥10%
- % decrease in sTNFα ([4]; BT system, 1 uM): ≥20%
- % increase in B-cell Proliferation ([4]; BT system, 1 uM): ≥10%
- % increase in B-cell Proliferation ([4]; concentration tested 1 uM): ≥10%
- % decrease in M-CSF [5, 10]: ≥20%
- % decrease in IL-1α ([5]; LPS system, 1 uM): ≥10%
- % decrease in M-CSF ([5]; LPS system, 1 uM): ≥20%
- % decrease in Thrombomodulin ([5]; LPS system, 1 uM): ≥10%
- % decrease in IL-8 ([5]; LPS system, 10 uM): ≥20%
- % decrease in Tissue Factor ([5]; LPS system, 10 uM): ≥10%
- % decrease in IL-1α ([5]; concentration tested 1 uM): ≥10%
- % decrease in Thrombomodulin ([5]; concentration tested 1 uM): ≥10%
- % decrease in Tissue Factor ([5]; concentration tested 10 uM): ≥10%
- % decrease in IL-8 [5, 11]: ≥20%
- % decrease in MMP-9 [6]: ≥10%
- % decrease in tPA ([6]; 10 uM): ≥10%
- % decrease in Thrombomodulin ([7]; 1 uM): ≥10%
- % decrease in VCAM-1 ([7]; 1 uM): ≥10%
- % decrease in HLA-DR ([7]; 10 uM): ≥10%
- % increase in IL-6 ([7]; 10 uM): ≥10%
- % increase in Eotaxin-3 [8]: ≥10%
- % increase in VCAM-1 [8]: ≥10%

SMILES: CCOP1(=O)OCC(C)(C)[C@H](C(=O)NCCC(=O)NCCSC(=O)CCC(=O)O)O1 (stereo partly shown) [Compound 61]
- % decrease in MCP-1 ([1]; 1 uM (Example 927)): ≥20%
- % decrease in MCP-1 ([1]; 1 uM (Example 928)): ≥20%
- % decrease in α-SMA [2, 9]: ≥10%
- % increase in MMP-1 [2, 9]: ≥10%
- % increase in PBMC Cytotoxicity ([3]; Sag system, 10 uM): ≥10%
- % increase in PBMC Cytotoxicity ([3]; concentration tested 10 uM): ≥10%
- % increase in B-cell Proliferation ([4]; BT system, 10 uM): ≥10%
- % increase in sIL-6 ([4]; BT system, 10 uM): ≥10%
- % increase in B-cell Proliferation ([4]; concentration tested 10 uM): ≥10%
- % decrease in M-CSF [5, 10]: ≥10%
- % decrease in IL-1α ([5]; LPS system, 1 uM): ≥10%
- % decrease in M-CSF ([5]; LPS system, 1 uM): ≥10%
- % decrease in sTNFα ([5]; LPS system, 1 uM): ≥10%
- % decrease in IL-8 ([5]; LPS system, 10 uM): ≥20%
- % decrease in Tissue Factor ([5]; LPS system, 10 uM): ≥10%
- % increase in sTNFα ([5]; LPS system, 10 uM): ≥10%
- % decrease in IL-1α ([5]; concentration tested 1 uM): ≥10%
- % decrease in sTNFα ([5]; concentration tested 1 uM): ≥10%
- % decrease in Tissue Factor ([5]; concentration tested 10 uM): ≥10%
- % increase in sTNFα ([5]; concentration tested 10 uM): ≥10%
- % decrease in IL-8 [5, 11]: ≥20%
- % decrease in MMP-9 [6]: ≥10%
- % decrease in Tissue Factor ([7]; 1 uM): ≥10%
- % decrease in VCAM-1 ([7]; 1 uM): ≥10%
- % decrease in LDLR ([7]; 10 uM): ≥10%
- % decrease in Thrombomodulin ([7]; 10 uM): ≥20%
- % increase in Eotaxin-3 [8]: ≥10%
